Results taken from patent US20070072814A1, “Method and means of modulating lipid metabolism” (priority 2003, published 2007).

Experiments:
Assay type in all cases: in vivo, human
ApoA = assay: Clinical trial: serum ApoA of IHD patients under therapy; conditions: patient serum
From the text: (§1) A group of […] patients were selected for therapy to alter lipid metabolism relative to a control group of 20 ‘matched’patients who were not treated (Patient Control Group).
(§2) The therapy group comprised 23 male and 7 female patients with an average age of 55±1.1 years. The patient control group was comprised of 20 patients with IHD, of which 15 were male and 5 were female with an average age of 53±1.2 years. Each patient gave written consent for his/her participation in the trial.
(§3) All patients had angina of II-III class of Canadian Cardiological Society classification.
(§4) Apart from the degree of generalization or severity of atherosclerosis, all groups were matched not only in age, gender and risk factors but also in medication, nitrates, β-blockers, angiotensin-converting enzyme inhibitors etc.
(§5) Each therapy was administered for 8 weeks. The blood of the patients of all four groups was tested every two weeks.

Triglycerides = assay: Clinical trial: serum triglycerides of IHD patients under therapy; conditions: patient serum
From the text: as §1, §2, §3, §4, §5

Total cholesterol = assay: Clinical trial: serum total cholesterol of IHD patients under therapy; conditions: patient serum; for cholesterol lowering effect (in words): therapy administered for 8 weeks
From the text: as §1, §2
(§6) All patients had angina of II-III class of Canadian Cardiological Society classification. […] IHD diagnosis for the other 15 patients with a recent history of unstable angina in the first group and 10 in the patient control group was confirmed by coronary angiography, which detected 70% or more of arterial stenosis.
as §4, §5

ApoB = assay: Clinical trial: serum Apo-B (immuno-turbometric assay); conditions: patient serum
From the text: as §1, §2, §6, §4, §5
(§7) The level of LDL was estimated in two independent parameters: LDL-cholesterol measured by combination of enzymatic and immunologic assays, and Apo-B measured by immuno-turbometric assay. These assays were performed using commercially available kits which include goat anti-human apo-B polyclonals (LDL-Direct™, Randox Labs Ltd UK, EZ LDL™ Cat No-358-A, Sigma UK).

LDL cholesterol = assay: Clinical trial: serum LDL-cholesterol (enzymatic and immunologic assays); conditions: patient serum
From the text: as §1, §2, §3, §4, §5, §7

For `CC[C@H]1OC(=O)[C@H](C)[C@@H](O[C@H]2C[C@@](C)(OC)[C@@H](O)[C@H](C)O2)[C@H](C)[C@@H](O[C@@H]2O[C@H](C)C[C@H](N(C)C)[C@H]2O)[C@](C)(O)C[C@@H](C)CN(C)[C@H](C)[C@@H](O)[C@]1(C)O` [Group A, azithromycin], the ApoA (ApoA; 1 month after treatment) was 145 mg/dL, the “ApoA (% of before-treatment value)” value (ApoA; 1 month after treatment) was 90% and the ApoA (ApoA; 2 months after treatment) was 162 mg/dL. For the same compound, the “ApoA (% of before-treatment value)” value (ApoA; 2 months after treatment) was 101%, the ApoA (ApoA; 3 months after treatment) was 161 mg/dL and the “ApoA (% of before-treatment value)” value (ApoA; 3 months after treatment) was 100%. For the same compound, the ApoA (ApoA; Treatment 4 weeks) was 142 mg/dL, the “ApoA (% of before-treatment value)” value (ApoA; Treatment 4 weeks) was 88% and the ApoA (ApoA; Treatment 6 weeks) was 143 mg/dL. The “ApoA (% of before-treatment value)” value (ApoA; Treatment 6 weeks) was 89%, the ApoA (ApoA; Treatment 8 weeks) was 141 mg/dL and the “ApoA (% of before-treatment value)” value (ApoA; Treatment 8 weeks) was 88%. The Triglycerides (Triglycerides; 1 month after treatment) was 106 mg/dL, the “Triglycerides (% of before-treatment value)” value (Triglycerides; 1 month after treatment) was 91% and the Triglycerides (Triglycerides; 2 months after treatment) was 118 mg/dL. For the same compound, the “Triglycerides (% of before-treatment value)” value (Triglycerides; 2 months after treatment) was 101%, the Triglycerides (Triglycerides; 3 months after treatment) was 109 mg/dL and the “Triglycerides (% of before-treatment value)” value (Triglycerides; 3 months after treatment) was 93%. The Triglycerides (Triglycerides; Treatment 4 weeks) was 112 mg/dL, the “Triglycerides (% of before-treatment value)” value (Triglycerides; Treatment 4 weeks) was 96% and the Triglycerides (Triglycerides; Treatment 6 weeks) was 101 mg/dL. For the same compound, the “Triglycerides (% of before-treatment value)” value (Triglycerides; Treatment 6 weeks) was 86%, the Triglycerides (Triglycerides; Treatment 8 weeks) was 99 mg/dL and the “Triglycerides (% of before-treatment value)” value (Triglycerides; Treatment 8 weeks) was 85%. For the same compound, the Total cholesterol (Total cholesterol; 1 month after treatment) was 197 mg/dL, the “Total cholesterol (% of before-treatment value)” value (Total cholesterol; 1 month after treatment) was 96% and the Total cholesterol (Total cholesterol; 2 months after treatment) was 196 mg/dL. The “Total cholesterol (% of before-treatment value)” value (Total cholesterol; 2 months after treatment) was 96%, the Total cholesterol (Total cholesterol; 3 months after treatment) was 198 mg/dL and the “Total cholesterol (% of before-treatment value)” value (Total cholesterol; 3 months after treatment) was 97%. The Total cholesterol (Total cholesterol; Treatment 4 weeks) was 186 mg/dL, the “Total cholesterol (% of before-treatment value)” value (Total cholesterol; Treatment 4 weeks) was 91% and the Total cholesterol (Total cholesterol; Treatment 6 weeks) was 190 mg/dL. For the same compound, the “Total cholesterol (% of before-treatment value)” value (Total cholesterol; Treatment 6 weeks) was 93%, the Total cholesterol (Total cholesterol; Treatment 8 weeks) was 191 mg/dL and the “Total cholesterol (% of before-treatment value)” value (Total cholesterol; Treatment 8 weeks) was 93%. The “cholesterol lowering effect (in words)” value (Total cholesterol) was “no cholesterol lowering effect”, the ApoB (ApoB; 1 month after treatment) was 115 mg/dL and the “ApoB (% of before-treatment value)” value (ApoB; 1 month after treatment) was 92%. For the same compound, the ApoB (ApoB; 2 months after treatment) was 133 mg/dL, the “ApoB (% of before-treatment value)” value (ApoB; 2 months after treatment) was 106% and the ApoB (ApoB; 3 months after treatment) was 131 mg/dL. The “ApoB (% of before-treatment value)” value (ApoB; 3 months after treatment) was 105%, the ApoB (ApoB; Treatment 4 weeks) was 109 mg/dL and the “ApoB (% of before-treatment value)” value (ApoB; Treatment 4 weeks) was 87%. The ApoB (ApoB; Treatment 6 weeks) was 110 mg/dL, the “ApoB (% of before-treatment value)” value (ApoB; Treatment 6 weeks) was 88% and the ApoB (ApoB; Treatment 8 weeks) was 113 mg/dL. The “ApoB (% of before-treatment value)” value (ApoB; Treatment 8 weeks) was 90%, the LDL cholesterol (LDL cholesterol; 1 month after treatment) was 44 mg/dL and the “LDL cholesterol (% of before-treatment value)” value (LDL cholesterol; 1 month after treatment) was 129%. The LDL cholesterol (LDL cholesterol; 2 months after treatment) was 41 mg/dL, the “LDL cholesterol (% of before-treatment value)” value (LDL cholesterol; 2 months after treatment) was 121% and the LDL cholesterol (LDL cholesterol; 3 months after treatment) was 40 mg/dL. For the same compound, the “LDL cholesterol (% of before-treatment value)” value (LDL cholesterol; 3 months after treatment) was 118%, the LDL cholesterol (LDL cholesterol; Treatment 4 weeks) was 37 mg/dL and the “LDL cholesterol (% of before-treatment value)” value (LDL cholesterol; Treatment 4 weeks) was 109%. The LDL cholesterol (LDL cholesterol; Treatment 6 weeks) was 38 mg/dL, the “LDL cholesterol (% of before-treatment value)” value (LDL cholesterol; Treatment 6 weeks) was 112% and the LDL cholesterol (LDL cholesterol; Treatment 8 weeks) was 39 mg/dL. The “LDL cholesterol (% of before-treatment value)” value (LDL cholesterol; Treatment 8 weeks) was 115%.
For `CC(=O)Oc1ccccc1C(=O)O` [Group D, acetylsalicylic acid], the ApoA (ApoA; 1 month after treatment) was 184 mg/dL, the ApoA (ApoA; 2 months after treatment) was 166 mg/dL and the “ApoA (% of before-treatment value)” value (ApoA; 2 months after treatment) was 106%. For the same compound, the ApoA (ApoA; 3 months after treatment) was 179 mg/dL, the ApoA (ApoA; Treatment 2 weeks) was 157 mg/dL and the “ApoA (% of before-treatment value)” value (ApoA; Treatment 2 weeks) was 99%. For the same compound, the ApoA (ApoA; Treatment 4 weeks) was 151 mg/dL, the “ApoA (% of before-treatment value)” value (ApoA; Treatment 4 weeks) was 96% and the Triglycerides (Triglycerides; 1 month after treatment) was 146 mg/dL. For the same compound, the “Triglycerides (% of before-treatment value)” value (Triglycerides; 1 month after treatment) was 126%, the Triglycerides (Triglycerides; 2 months after treatment) was 128 mg/dL and the Triglycerides (Triglycerides; 3 months after treatment) was 134 mg/dL. The Triglycerides (Triglycerides; Treatment 2 weeks) was 152 mg/dL, the “Triglycerides (% of before-treatment value)” value (Triglycerides; Treatment 2 weeks) was 131% and the Triglycerides (Triglycerides; Treatment 4 weeks) was 111 mg/dL. The “Triglycerides (% of before-treatment value)” value (Triglycerides; Treatment 4 weeks) was 96%, the Total cholesterol (Total cholesterol; 1 month after treatment) was 221 mg/dL and the “Total cholesterol (% of before-treatment value)” value (Total cholesterol; 1 month after treatment) was 87%. For the same compound, the Total cholesterol (Total cholesterol; 2 months after treatment) was 223 mg/dL, the “Total cholesterol (% of before-treatment value)” value (Total cholesterol; 2 months after treatment) was 88% and the Total cholesterol (Total cholesterol; 3 months after treatment) was 234 mg/dL. The “Total cholesterol (% of before-treatment value)” value (Total cholesterol; 3 months after treatment) was 92%, the Total cholesterol (Total cholesterol; Treatment 2 weeks) was 233 mg/dL and the “Total cholesterol (% of before-treatment value)” value (Total cholesterol; Treatment 2 weeks) was 92%. For the same compound, the Total cholesterol (Total cholesterol; Treatment 4 weeks) was 210 mg/dL, the “Total cholesterol (% of before-treatment value)” value (Total cholesterol; Treatment 4 weeks) was 83% and the “cholesterol lowering effect (in words)” value (Total cholesterol) was “no cholesterol lowering effect”. For the same compound, the ApoB (ApoB; 1 month after treatment) was 131 mg/dL, the “ApoB (% of before-treatment value)” value (ApoB; 1 month after treatment) was 106% and the ApoB (ApoB; 2 months after treatment) was 142 mg/dL. For the same compound, the “ApoB (% of before-treatment value)” value (ApoB; 2 months after treatment) was 114%, the ApoB (ApoB; 3 months after treatment) was 111 mg/dL and the “ApoB (% of before-treatment value)” value (ApoB; 3 months after treatment) was 90%. For the same compound, the ApoB (ApoB; Treatment 2 weeks) was 137 mg/dL, the “ApoB (% of before-treatment value)” value (ApoB; Treatment 2 weeks) was 110% and the ApoB (ApoB; Treatment 4 weeks) was 113 mg/dL. For the same compound, the “ApoB (% of before-treatment value)” value (ApoB; Treatment 4 weeks) was 91%, the LDL cholesterol (LDL cholesterol; 1 month after treatment) was 44 mg/dL and the LDL cholesterol (LDL cholesterol; 2 months after treatment) was 38 mg/dL. For the same compound, the “LDL cholesterol (% of before-treatment value)” value (LDL cholesterol; 2 months after treatment) was 103%, the LDL cholesterol (LDL cholesterol; 3 months after treatment) was 43 mg/dL and the LDL cholesterol (LDL cholesterol; Treatment 2 weeks) was 41 mg/dL. The LDL cholesterol (LDL cholesterol; Treatment 4 weeks) was 41 mg/dL.
